# From patent US20260199236A1, “PERFLUORINATED MICELLES AND MEDICAL USES THEREOF” (COMMISSARIAT A L'ENERGIE ATOMIQUE ET AUX ENERGIES …, priority 2022, published 2026)
# Assays:
# [1] = Oxygen release from O2-saturated colloid injected into degassed water; assay type: physicochemical; conditions: 200 μL of 7.6 mM surfactant colloid into degassed water
# Procedure: To this end, a small volume of oxygen-saturated micelle colloid was injected with variable PFTD-PEG concentrations into a large volume of degassed water and the release of oxygen was monitored by continuous electrochemical monitoring over time (FIG. 3A). From this set of experiments, a clear correlation between the micelle concentration and the amount of released oxygen was observed. In fact, 15 min after addition of 200 μL of a 5, 10, or 20 mg mL^−1 PFTD-PEG colloid to 100 mL of degassed water, the oxygen concentration reached values of 2.9, 4.3, and 5.6 μM, respectively. As a reference, the oxygen concentration reached only 1.1 μM when the same volume of oxygen-saturated water was added instead of the micelle colloid. The effect of the fluorinated PFTD-PEG micelles on oxygen delivery was compared to that of micelles obtained from commonly used amphiphiles, namely sodium dodecyl sulfate (SDS) and Triton X100.
# [2] = Oxygen content decay of O2-saturated dispersions on ambient air equilibration; conditions: first-order fit, SDS 9 mM, Triton X-100 3.8 mM; for Release rate (oxygen): PFTD-PEG 3.8 mM
# Description: Another commonly used method consists in measuring the rate of decrease of the oxygen concentration of a given micellar solution from O2-saturation to equilibrium with ambient air. In the case of perfluorinated micelles, any observed difference in deoxygenation rate can be directly related the diffusion of O2 from the perfluorinated core to the aqueous medium while oxygen dissolved in the saturated dispersant (i.e. water) escapes to the atmosphere.
# To assess the dioxygen release capacity of PFTD-PEG micelles, colloids (4 mL, c=3.8 mM and 7.6 mM) were pre-saturated with dioxygen under agitation in a sealed round-bottom flask. After saturation, agitation was stopped and the PFTD-PEG micellar suspension was left to equilibrate with ambient air. Evolution of dioxygen concentration in the medium over time was recorded using a dissolved dioxygen sensor.
# In this equation, y0 corresponds to the value of y at t=0 s while A corresponds to the amplitude of the curve such that A=Plateau−y0. This model provides essential parameters such as the oxygen half-life and the oxygen release rate from the different micellar suspensions.
Compound,oxygen concentration [1] [mM],Release rate (oxygen) [2],t1/2 (oxygen half-life) ([2]; PFTD-PEG 3.8 mM (10 mg mL^−1)) [min]
"CCCCCCCCCCCCOS(=O)(=O)[O-].[Na+] [SDS, sodium dodecyl sulfate]",2.7,2.61 ± 0.03 10^−4 s^−1,
Triton X-100,3.6,2.49 ± 0.04 10^−4 s^−1,46.422 ± 0.832
